Tests used:
[1] = system: rats; assay: Cardiorespiratory analysis (heart rate, breath rate, SpO2); type: in vivo
Excerpt: During the experiment, the rat was allowed to freely move in a cage (40 × 40 × 30 cm) with no access to food and water while being monitored by the sensor collar through MouseOx Plus (STARR Life Sciences® Corp., Oakmont, PA, United States) software. In the first hour of acclimation, a fake collar similar to the real one used in the test but with no sensor was used to minimize the potential stress during the experiment. Then, the real collar (with sensor) was replaced, and baseline parameters were monitored for 60 min.

[2] = system: rats; assay: Visual object response test; type: in vivo
Excerpt: (§1) Visual response was verified by two behavioral tests that evaluated the ability of the rat to capture visual information even when stationary (the visual object response) or when moving (the visual placing response). The visual object response test was used to evaluate the ability of the rat to see an object approaching from the front or the side, inducing the animal to shift or turn its head or to retreat (modified from [Ossato et al., 2015]; [Marti et al., 2019]). For the frontal visual response, a white horizontal bar was moved frontally to the rat’s head; the maneuver was repeated three times. For the lateral visual response, a small dentist’s mirror was moved into the rat’s field of view in a horizontal arc until the stimulus was between the rat’s eyes. The procedure was conducted bilaterally and was repeated three times. The score assigned was a value of 1 if there was a reflection in the rat movement or 0 if not. The total value was calculated by adding the scores obtained in the frontal with that obtained in the lateral visual object response (overall score 9). Evaluation of the visual object response was measured at 0, 10, 30, 60, 120, and 180 min post-injection. The visual placing response test was performed using a tail suspension-modified apparatus able to bring the rat toward the floor at a constant speed of 10 cm/sec (modified from [Ossato et al., 2015]; [Marti et al., 2019]). The downward movement of the rat was videotaped. Frame-by-frame analysis allowed us to evaluate the beginning of the reaction of the rat while it was close to the floor. When the rat started the reaction, an electronic ruler evaluated the perpendicular distance in millimeters between the eyes of the rat to the floor. The naïve rats perceived the floor and prepared for contact at a distance of about 27 ± 4.5 mm. Evaluation of the visual placing response was measured at 0, 15, 35, 65, 125, and 190 min post-injection.

[3] = system: rats; assay: Acoustic response test; type: in vivo
Method: Acoustic response measures the reflex of the rat in reply to an acoustic stimulus produced behind the animal. Four acoustic stimuli of different intensities and frequencies were tested (see [Marti et al., 2019]). Each sound test was repeated three times, giving a value of 1 if there was a response and 0 if not present, for a total score of 3 for each sound. The acoustic total score was calculated by adding scores obtained in the four tests (overall score 12). Evaluation of the […] was measured at 0, 10, 30, 60, 120, and 180 min post-injection.

[4] = system: hepatocyte model; details: ref Gandhi et al., 2013; cited from earlier work
[5] = system: rats; assay: Open field test and gross behavior test; type: in vivo
Method: An open field, used to measure locomotor activity, consisted of a wooden chamber (45 cm high) with a circular base (75 cm diameter). The floor was divided into 12 sections of similar area by two concentric circles and radial segments. The apparatus was placed in a sound-proof room, illuminated by a white 80 W lamp placed 200 cm over the center of the arena. Rat behavior in the test sessions was videotaped, analyzed, and scored. The following parameters were measured: time spent in the central or peripheral area, locomotor activity, and number of rearing reactions. Each of the behavioral parameters was scored manually by a tally counting method. The behavioral parameters scored were head twitches, wet dog shakes, grooming, licking, number of defecations, and tail rigidity. In the open field test, 21 male Sprague-Dawley rats were used and divided into three groups (n = 7 per group) and received different doses of AKB48 according to the CPP protocol. After treatment, the animals were leaved undisturbed for 10 min in the arena and then observed for 30 min.

[6] = system: extracellular DA levels; assay: In vivo brain microdialysis of DA (NAc shell, NAc core, mPFC); parameters: species or system rats
Excerpt: Male Sprague-Dawley rats were anaesthetized with isoflurane gas, and maintained under anaesthesia using a breathing tube under a scavenging system while placed in a stereotaxic apparatus and implanted with vertical dialysis probes (1.5 or 3 mm dialyzing portion for NAc or mPFC, respectively) in the NAc shell (A + 2.2, L + 1.0 from bregma, V-7.8 from dura) or core (A + 1.4; L + 1.6 from bregma; V-7.6 from dura) or in the mPFC (A + 3.7, L + 0.8 from bregma, V-5.0 from dura), according to the rat brain atlas ([Paxinos and Watson, 1998]).
On the day following surgery, probes were perfused with Ringer’s solution (147 mM NaCl, 4 mM KCl, 2.2 mM CaCl2) at a constant rate of 1 μL/min. Dialyzate samples (10 μL) were injected into an HPLC equipped with a reverse-phase column (C8 3.5 μm, Waters, United States) and a coulometric detector (ESA, Coulochem II) to quantify DA. The first electrode of the detector was set at + 130 mV (oxidation), and the second at −175 mV (reduction). The composition of the mobile phase was: 50 mM NaH2PO4, 0.1 mM Na2-EDTA, 0.5 mM n-octyl sodium sulfate, 15% (v/v) methanol, pH 5.5. The sensitivity of the assay for DA was 5 fmol/sample. At the end of the experiment, animals were sacrificed and their brains removed and stored in formalin (8%) for histological examination to verify the correct placement of the microdialysis probe.

[7] = system: rats; assay: Visual placing response test; type: in vivo
Excerpt: as §1

[8] = AKB48 highest dose (3 mg/kg), after 60 min from injection
[9] = AKB48 0.1 and 0.5 mg/kg i.p., both doses
[10] = AM251 1 mg/kg i.p. before AKB48 3 mg/kg i.p.

In the case of CCCCCn1nc(C(=O)NC23CC4CC(CC(C4)C2)C3)c2ccccc21 [AKB48, N-(1-adamantyl)-1-pentyl-1H-indazole-3-carboxamide], the “duration of the heart rate decrease” value ([1]; AKB48 3.0 mg/kg i.p.) is reported as “about 90 min”, the “time at which the heart rate effect disappeared” value ([1]; AKB48 3.0 mg/kg i.p.) is reported as 180 min and the “reduction of heart rate” value ([1]; AKB48 3.0 mg/kg i.p., after 30 min from injection) is reported as roughly 36%. For the same compound, the “time at which the SpO2 effect disappeared” value ([1]; AKB48 highest dose (3 mg/kg)) was 120 min, the “time at which the breath rate effect disappeared” value ([1]; AKB48 highest dose (3 mg/kg)) was 120 min and the “reduction of SpO2 saturation” value [1, 8] was roughly 10%. The “reduction of breath rate” value [1, 8] was roughly 30%, the “persistence of the reduction of visual object response” value ([2]; AKB48 0.3 mg/kg i.p.) was “transient” and the visual object response ([2]; AKB48 0.1–3.0 mg/kg i.p., 180 min observation) was “dose-dependently reduced”. For the same compound, the “persistence of the reduction of visual object response” value ([2]; AKB48 0.5 and 3.0 mg/kg i.p.) was “up to 180 min”, the acoustic response ([3]; AKB48, only at the highest dose (3 mg/kg i.p.)) was “reduced” and the “persistence of the reduction of acoustic response” value ([3]; AKB48 highest dose (3 mg/kg i.p.)) was “up to 120 min”. For the same compound, the “number of major metabolites” value [4] was 11, the “distance traveled in the central area” value ([5]; AKB48 0.5 mg/kg) was “reduced” and the “time spent in the central area” value ([5]; AKB48 0.5 mg/kg) was “reduced”. For the same compound, the total distance traveled ([5]; AKB48 0.5 mg/kg) was “reduced”, the amount of defecation ([5]; AKB48 0.1 and 0.5 mg/kg i.p.) was “did not affect” and the grooming ([5]; AKB48 0.1 and 0.5 mg/kg i.p.) was “did not affect”. The head shaking ([5]; AKB48 0.1 and 0.5 mg/kg i.p.) was “did not affect”, the rearing ([5]; AKB48 0.1 and 0.5 mg/kg i.p.) was “no effect” and the spontaneous locomotor activity ([5]; AKB48 0.1 and 0.5 mg/kg i.p.) was “reduced”. The wet dog shaking ([5]; AKB48 0.1 and 0.5 mg/kg i.p.) was “did not affect”, the licking [5, 9] was “decrease” and the tail rigidity [5, 9] was “significant increase”. The “DA levels in the NAc shell” value ([6]; AKB48 0.25 mg/kg i.p.) was “increased”, the “max increase of DA in the NAc shell” value ([6]; AKB48 0.25 mg/kg ip, at 20 and 40 min) was “about 40%” and the “DA levels in the mPFC” value ([6]; AKB48 0.125 and 0.25 mg/kg i.p.) was “No significant effects”. The “DA levels in the NAc shell” value ([6]; AKB48 lower or higher doses (0.125 and 0.5 mg/kg i.p.)) was “ineffective”, the “persistence of the reduction of visual placing response” value ([7]; AKB48 3 mg/kg i.p.) was “up to 190 min” and the visual placing response ([7]; AKB48 0.1–3 mg/kg i.p., 190 min observation) was “reduced”.

With Cc1c(C(=O)NN2CCCCC2)nn(-c2ccc(Cl)cc2Cl)c1-c1ccc(I)cc1 [AM251, 1-(2,4-dichlorophenyl)-5-(4-iodophenyl)-4-methyl-N-(piperidin-1-yl)-1H-pyrazole-3-carboxamide, reference compound] the “visual object response, AM251 alone” value ([2]; AM251 1 mg/kg i.p. alone) was “did not alter”, the “inhibition of visual object response induced by AKB48, after AM251 pre-treatment” value [2, 10] was “prevented” and the “acoustic response, AM251 alone” value ([3]; AM251 1 mg/kg i.p. alone (data not shown)) was “did not alter”. For the same compound, the “inhibition of acoustic response induced by AKB48, after AM251 pre-treatment” value [3, 10] was “prevented”, the “visual placing response, AM251 alone” value ([7]; AM251 1 mg/kg i.p. alone) was “did not alter” and the “visual impairment (placing) induced by AKB48, after AM251 pre-treatment” value ([7]; AM251 1 mg/kg i.p. before AKB48 3 mg/kg) was “prevented”.

From PMC6831561, “Pharmacological and Behavioral Effects of the Synthetic Cannabinoid AKB48 in Rats” (Frontiers in Neuroscience, 2019)
